Test results from patent publication US20260151467A1, “METHOD FOR TREATING CANCER” (THE CHILDREN'S MEDICAL CENTER CORPORATION, priority 2018, published 2026).

What was measured:
[1] = tested on: CCRF-CEM cells; experiment: Viable cell counts (trypan blue) of CCRF-CEM cells treated with asparaginase and other agents; format: cell-based, human
Description: Cells (25,000 per well) were seeded in 100 μl of complete growth medium in 96-well plates and incubated with chemotherapeutic agents or vehicle. T-ALL cells were split every 48 hours in a 1:5 ratio. Briefly, 20 μl of cells were mixed with 80 μl fresh culture medium, supplemented with vehicle or chemotherapeutic drugs at the indicated doses. AML cells were split every 72 hours as described above. Cell viability was assessed by counting viable cells based on trypan blue vital dye staining (Invitrogen), according to the manufacturer's instructions. Chemotherapeutic drugs included: PEG-asparaginase (“oncaspar”, Shire, Lexington, MA), dexamethasone (Sigma-Aldrich), vincristine (Selleckchem, Houston, TX), doxorubicin (Sigma-Aldrich), 6-mercaptopurine (Abcam, Cambridge, UK), CHIR99021 (Selleckchem), bortezomib (Selleckchem), rapamycin (Selleckchem), RAD001 (Selleckchem), AZD2014 (Selleckchem), and Wnt3A (R&D systems, Minneapolis, MN). BRD0705 and […] were synthesized as described^15. Caspase 3/7 activity was assessed using the Caspase Glo 3/7 Assay (Promega, Madison, WI) according to the manufacturer's instructions.

[2] = tested on: CCRF-CEM cells; experiment: Assessment of cell size by flow cytometry (FSC-H), CCRF-CEM; format: cell-based, human; details: asparaginase 10 U/L, 48 hours
Description: Assessment of cell size. Cells (400,000 per well) were plated in 1 ml of complete growth medium, containing a final concentration of 10 U/L asparaginase in a 24-well format. After 48 hours of treatment, forward scattering (FSC-H) was assessed by flow cytometry.

[3] = tested on: asparaginase-resistant T-ALL patient-derived xenograft; experiment: T-ALL patient-derived xenograft in NRG mice, survival; format: in vivo, mouse
Description: Mice were exposed to a sub-lethal dose of radiation (4.5 Gy) and subsequently injected with human leukemia cells. All injections were performed by tail vein injection. Blood collections were performed to monitor leukemia onset in mice injected with leukemic cells, which was assessed by staining for human CD45 expression using anti-human CD45-PE-Cy7 (1:400, BD #560915) antibody staining. As soon as leukemia engraftment was confirmed based on ≥5% human leukemia cells in the peripheral blood, treatment of mice was begun. Asparaginase (1,000 U/kg) or PBS were injected by tail vein injection as a single dose on day 1 of drug treatment, and BRD0705 (15 mg/kg) or vehicle were given every 12 hours for 12 days by oral gavage. Vehicle was formulated as previously described.^15 Mice were anesthetized with isoflurane (Patterson Veterinary, Greeley, CO) prior to gavage. After start of treatment, body weight was monitored every third day. To assess bilirubin levels, mandibular blood vein collection was performed, and bilirubin levels were measured in the Boston Children's Hospital clinical laboratory. The primary endpoint of this experiment was survival. Mice were euthanized as soon as they developed weight loss greater than 15% or signs/symptoms of progressing disease. Post-mortem analysis of leukemic burden was performed by extracting bone marrow cells, which were filtered through a […] mesh filter and red blood cells were lysed using the BD Biosciences Red Blood Cell Lysis reagent (BD #555899). Isolated bone marrow cells were stained for assessment of leukemic burden using following antibodies from BD Biosciences: Anti-human CD4-APC-Cy7 (1:100, BD #561839) and anti-human CD8-PerCP-Cy5.5 (1:100, BD #560662).

[4] = tested on: HCT-15 cells; experiment: Chemotherapy response of colon cancer cell lines (trypan blue counts), HCT-15; format: cell-based, human; details: 10 days
Description: (§1) Cells (100,000 per well) were seeded in […] of complete growth medium in 12-well plates and incubated with chemotherapeutic agents or vehicle. Cells were split every 48 hours and cell viability was assessed by counting viable cells based on trypan blue vital dye staining (Invitrogen), according to the manufacturer's instructions. Chemotherapeutic drugs included: asparaginase (pegaspargase, Shire, Lexington, MA), CHIR99021 (Selleckchem), recombinant human Wnt3A protein (R&D systems, Minneapolis, MN) and recombinant human R-Spondin 3 protein (R&D systems, Minneapolis, MN). BRD0705 and BRD3731 were synthesized as described (Wagner et al., 2018). Caspase 3/7 activity was assessed using the Caspase Glo 3/7 Assay (Promega, Madison, WI) according to the manufacturer's instructions.

[5] = tested on: SW-480 cells; experiment: Chemotherapy response of colon cancer cell lines (trypan blue counts), SW-480; format: cell-based, human; details: 10 days
Description: as §1

[6] = tested on: Rspo3 fusion organoids; experiment: Chemotherapy response in mouse intestinal organoids, Rspo3 fusion; format: cell-based; details: asparaginase 100 U/L, 10 days
Description: (§2) For assessment of chemotherapy response in mouse intestinal organoids, Apc-deficient and Rspo3 fusion organoids were cultured in basal organoid medium (medium not containing murine Wnt3A, murine Noggin and human R-spondin1 protein). A full 0.95 cm2 well of organoids was split into new wells, aiming to obtain approximately 25 organoids per well. Organoids were split according to previously published protocols (O'Rourke et al., 2016). Matrigel and basal organoid culture medium were supplemented with vehicle or chemotherapeutic agents, and split every 48 hours. After 10 days in culture, total organoid numbers per wells were counted by light microscopy. Microscopy was performed using an 100× objective on an Axio Imager A1 microscope (Zeiss, Oberkochen, Germany), with images captured using a CV-A10 digital camera (Jai, Yokohama, Japan) and Cytovision software (Leica Biosystems, Wetzlar, Germany).
(§3) Organoids touching the edge of a well were excluded from counting. Images were taken from a representative of three independent experiments and analyzed with ImageJ Software (Schneider et al., 2012).

[7] = tested on: Apc-deficient organoids; experiment: Chemotherapy response in mouse intestinal organoids, Apc-deficient; format: cell-based; details: asparaginase 100 U/L, BRD0705 1 μM or both, 10 days
Description: as §2, §3

[8] = tested on: HCT-15 cells; experiment: Assessment of cell size by flow cytometry (FSC-H), HCT-15; format: cell-based, human; details: asparaginase 100 U/L (FIG. 18A)
Description: […] After 48 hours of treatment, forward scatter height (FSC-H) was assessed by flow cytometry on a Beckton-Dickinson LSR-II instrument.

[9] = tested on: Rspo3 fusion tumors; experiment: Subcutaneous Rspo3 fusion organoid tumors in nude mice; format: in vivo, mouse; details: single dose of asparaginase
Description: (§4) For implantation of APC mutant human CRC PDX, patient tumor material was collected in PBS and kept on wet ice for engraftment within 24 h after resection. Upon arrival, necrotic and supporting tissues were carefully removed using a surgical blade. Approximately 1 mm×1 mm tissue fragments were implanted subcutaneously into the flank region of male nude mice, as described (Bullman et al., 2017). For injection of intestinal organoids (Rspo3; p53; Kras, or Apc; p53; Kras), per mouse one full […] well of organoids was injected subcutaneously.
(§5) As soon as tumors reached a volume of approximately 150 mm3, treatment of mice was begun. For the APC mutant human CRC PDX, a single dose of asparaginase (1,000 U/kg) or PBS was injected by tail vein injection on day 1 of treatment, and BRD0705 (15 mg/kg) or vehicle was given every 12 hours for 21 days by oral gavage. Vehicle was formulated as previously described (Wagner et al., 2018).
(§6) After start of treatment, body weight and tumor size were evaluated every other day. Tumor size was assessed by caliper measurements and the approximate volume of the mass was calculated using the formula (l×w×w)×(π/6), where 1 is the major tumor axis and w is the minor tumor axis.

[10] = tested on: Apc-deficient tumors; experiment: Subcutaneous Apc-deficient organoid tumors in nude mice; format: in vivo, mouse; details: single dose of asparaginase
Description: as §4, §5, §6

[11] = Body weight of nude mice injected with organoids; format: in vivo; details: single dose of asparaginase, FIG. 19A
Description: as §6

[12] = tested on: APC-mutant CRC patient-derived xenograft; experiment: APC-mutant human CRC patient-derived xenograft in nude mice; format: in vivo, mouse; details: asparaginase 1000 U/kg×1 dose; BRD0705 every 12 hours×21 days
Description: as §4
As soon as tumors reached a volume of approximately 150 mm3, treatment of mice was begun. […] Vehicle was formulated as previously described (Wagner et al., 2018).
as §6

[13] = tested on: CRC; details: Clarkson 1970; Ohnuma 1970; Wilson 1975; cited from earlier work

Substance: asparaginase
- toxicity of asparaginase ([1]; 10 U/L dose): lacked detectable toxicity
- asparaginase sensitivity of the cell line (viability) ([1]; FIG. 5: 100 U/L asparaginase, 48 hours): asparaginase-resistant
- cell size (FSC-H) [2]: measurable decrease in cell size
- difference in survival between vehicle and monotherapy groups (log-rank) ([3]; FIG. 4D, Kaplan-Meier): not significant
- efficacy against xenograft (survival) ([3]; asparaginase 1,000 U/kg i.v. single dose, BRD0705 15 mg/kg oral gavage every 12 hours for 12 days): highly resistant
- response to asparaginase monotherapy [4]: refractory
- response to asparaginase monotherapy [5]: refractory
- toxicity to organoids (viable organoid count) [6]: highly toxic
- toxicity to organoids (viable organoid count) [7]: little activity
- cell size (FSC-H) [8]: significantly decreased cell size
- therapeutic activity [9]: significant therapeutic activity
- disease progression (tumor volume) ([9]; FIG. 16B): markedly delayed disease progression
- tumor regression ([9]; FIG. 16C): induced tumor regression in most treated mice
- progression-free survival ([9]; FIG. 16D): prolonged progression-free survival
- effect on tumors [10]: little effect
- weight loss [11]: without inducing appreciable weight loss
- activity on tumor growth [12]: no activity
- activity in unselected patients with CRC [13]: little activity
